Test results taken from PMC11121837, “Impact of Nitric Oxide-Release Kinetics on Antifungal Activity” (Journal of Fungi, 2024).
Converted amounts (≈) assume the structure as drawn.

Columns and labels:
panel of fungal isolates = assay: Susceptibility assays, summary over the panel of fungal isolates; format: cell-based; details: IC50 AIR-100 / MIC
[1] = test system: C. neoformans (ATCC 208821); assay: Checkerboard assay of NO donors with antifungals; format: cell-based, Cryptococcus neoformans
[2] = Characterization of NO release (chemiluminescence nitric oxide analyzer); format: physicochemical
Cryptococcus neoformans = assay: Susceptibility assay (MIC, broth microdilution, CLSI M27); format: cell-based; details: for MIC / NO dose at MIC: Cryptococcus neoformans; for MIC: 72 h; for NO dose at MIC: calculated NO dose at MIC
C. auris (ATCC MYA-5001) = assay: Checkerboard assay of NO donors with antifungals; format: cell-based, Candida auris
[3] = test system: Aspergillus fumigatus spores; assay: Susceptibility assay for sporulating fungi (MIC, EUCAST E.Def.9.4); format: cell-based
[4] = test system: MatTek EpiAirway tissue (AIR-100); assay: cells; format: cell-based; details: Homo sapiens, 24 h, read-out: IC50 (concentration needed to inhibit tissue viability by 50%)
Candida auris = assay: Susceptibility assay (MIC, broth microdilution, CLSI M27); format: cell-based; details: for MIC / NO dose at MIC: Candidozyma auris; for MIC: 24 h; for NO dose at MIC: calculated NO dose at MIC
[5] = test system: C. neoformans (ATCC208821); format: cell-based, Cryptococcus neoformans
Candida albicans = assay: Susceptibility assay (MIC, broth microdilution, CLSI M27); format: cell-based; details: for MIC: 24 h; for NO dose at MIC: calculated NO dose at MIC
[6] = test system: C. albicans (ATCC MYA-2876); assay: Checkerboard assay of NO donors with antifungals; format: cell-based, Candida albicans
C. auris (MYA-5001) = format: cell-based, Candida auris
[7] = NO donor combined with 5-fluorocytosine
[8] = NO donor combined with amphotericin B
[9] = NO donor combined with butenafine
[10] = NO donor combined with caspofungin
[11] = NO donor combined with fluconazole
[12] = NO donor combined with miconazole
[13] = phosphate-buffered saline 10 mM, pH 7.4, 37 °C
[14] = Cryptococcus neoformans ATCC MYA-4566
[15] = Cryptococcus neoformans ATCC MYA-4567
[16] = ATCC14053, Candida albicans ATCC 14053
[17] = ATCC18804, Candida albicans ATCC 18804

NCCCN(CCCN)/[N+]([O-])=N/O [DPTA/NO, bis(3-aminopropyl) amine/NO]
selectivity indices, all strains (panel of fungal isolates): below 100
checkerboard classification [1, 7]: I (indifferent (I))
∑FIC [1, 7]: ≥ 1
checkerboard classification [1, 8]: I (indifferent (I))
∑FIC [1, 8]: ≥ 1
checkerboard classification [1, 9]: I (indifferent (I))
∑FIC [1, 9]: ≥ 1
checkerboard classification [1, 10]: I (indifferent (I))
∑FIC [1, 10]: ≥ 1
checkerboard classification [1, 11]: I (indifferent (I))
∑FIC [1, 11]: ≥ 1
checkerboard classification [1, 12]: S (Synergistic (S))
∑FIC [1, 12]: 0.375
[NO]t, total NO released over full duration ([2]; pH 7.4): 7.0 ± 1.1 µmol/mg
[NO]max, maximum instantaneous NO concentration [2, 13]: 2867 ± 211 ppb mg^−1
td, duration of NO release [2, 13]: 31.0 ± 3.3 h
Selectivity Index (IC50 AIR-100 / MIC) (Cryptococcus neoformans; C. neoformans ATCC 208821): 18
Selectivity Index (IC50 AIR-100 / MIC) (Cryptococcus neoformans; C. neoformans ATCC MYA-4566): 28
Selectivity Index (IC50 AIR-100 / MIC) (Cryptococcus neoformans; C. neoformans ATCC MYA-4567): 28
MIC (Cryptococcus neoformans; [14]): 625 µg/mL (≈ 3.27 mM)
MIC (Cryptococcus neoformans; [15]): 625 µg/mL (≈ 3.27 mM)
MIC (Cryptococcus neoformans; ATCC208821, 72 h, Cryptococcus neoformans ATCC 208821): 1000 µg/mL (≈ 5.23 mM)
NO dose at MIC (Cryptococcus neoformans; ATCC208821, Cryptococcus neoformans ATCC 208821): 210 µg/mL
NO dose at MIC (Cryptococcus neoformans; [14]): 131 µg/mL
NO dose at MIC (Cryptococcus neoformans; [15]): 131 µg/mL
checkerboard classification (C. auris (ATCC MYA-5001); [7]): I (indifferent (I))
∑FIC (C. auris (ATCC MYA-5001); [7]): ≥ 1
checkerboard classification (C. auris (ATCC MYA-5001); [8]): I (indifferent (I))
∑FIC (C. auris (ATCC MYA-5001); [8]): ≥ 1
checkerboard classification (C. auris (ATCC MYA-5001); [9]): I (indifferent (I))
∑FIC (C. auris (ATCC MYA-5001); [9]): ≥ 1
checkerboard classification (C. auris (ATCC MYA-5001); [10]): I (indifferent (I))
∑FIC (C. auris (ATCC MYA-5001); [10]): ≥ 1
checkerboard classification (C. auris (ATCC MYA-5001); [11]): I (indifferent (I))
∑FIC (C. auris (ATCC MYA-5001); [11]): ≥ 1
checkerboard classification (C. auris (ATCC MYA-5001); [12]): A (additive (A))
∑FIC (C. auris (ATCC MYA-5001); [12]): 0.625
Selectivity Index (IC50 AIR-100 / MIC) ([3]; A. fumigatus ATCC 1022): 14
MIC ([3]; ATCC1022, Aspergillus fumigatus ATCC 1022 spores): 1250 µg/mL (≈ 6.54 mM)
NO dose at MIC ([3]; ATCC1022, Aspergillus fumigatus ATCC 1022 spores, calculated NO dose at MIC): 262 µg/mL
IC50 [4]: 18000 µg/mL (≈ 94.1 mM)
Selectivity Index (IC50 AIR-100 / MIC) (Candida auris; C. auris ATCC MYA-5000): 28
Selectivity Index (IC50 AIR-100 / MIC) (Candida auris; C. auris ATCC MYA-5001): 35
Selectivity Index (IC50 AIR-100 / MIC) (Candida auris; C. auris ATCC MYA-5003): 57
MIC (Candida auris; Candida auris ATCC MYA-5000): 625 µg/mL (≈ 3.27 mM)
MIC (Candida auris; Candida auris ATCC MYA-5001): 500 µg/mL (≈ 2.61 mM)
MIC (Candida auris; Candida auris ATCC MYA-5003): 310 µg/mL (≈ 1.62 mM)
NO dose at MIC (Candida auris; Candida auris ATCC MYA-5000): 131 µg/mL
NO dose at MIC (Candida auris; Candida auris ATCC MYA-5001): 105 µg/mL
NO dose at MIC (Candida auris; Candida auris ATCC MYA-5003): 65.3 µg/mL
outcome of passaging at sub-MIC dose [5]: yeast death after the second passage
MIC (Candida albicans; [16]): 625 µg/mL (≈ 3.27 mM)
NO dose at MIC (Candida albicans; [16]): 131 µg/mL
MIC (Candida albicans; [17]): 625 µg/mL (≈ 3.27 mM)
NO dose at MIC (Candida albicans; [17]): 131 µg/mL
Selectivity Index (IC50 AIR-100 / MIC) (Candida albicans; C. albicans ATCC 14053): 28
Selectivity Index (IC50 AIR-100 / MIC) (Candida albicans; C. albicans ATCC 18804): 28
Selectivity Index (IC50 AIR-100 / MIC) (Candida albicans; C. albicans ATCC MYA-2876): 35
MIC (Candida albicans; Candida albicans ATCC MYA-2876): 500 µg/mL (≈ 2.61 mM)
NO dose at MIC (Candida albicans; Candida albicans ATCC MYA-2876): 105 µg/mL
checkerboard classification [6, 7]: I (indifferent (I))
∑FIC [6, 7]: ≥ 1
checkerboard classification [6, 8]: I (indifferent (I))
∑FIC [6, 8]: ≥ 1
checkerboard classification [6, 9]: I (indifferent (I))
∑FIC [6, 9]: ≥ 1
checkerboard classification [6, 10]: I (indifferent (I))
∑FIC [6, 10]: ≥ 1
checkerboard classification [6, 11]: I (indifferent (I))
∑FIC [6, 11]: ≥ 1
checkerboard classification [6, 12]: I (indifferent (I))
∑FIC [6, 12]: ≥ 1
change in MIC or MFCs after serial passaging (C. auris (MYA-5001)): no changes
